We go through two compounds from patent US20250263370A1 (Tay Therapeutics Limited, priority 2022, published 2025).

Molecules are shown by their SMILES. Several values for one entry are separate records, joined by “and”; a condition that tells them apart may be missing. Equal values may be shown once. Read-outs that look alike come from different tables or passages of the source. Marks after values point to notes of the source that are not given here. Where only a bound is given, the exact number is not on record here.

One data set deals with IL-22. In words: IL-22 levels by ELISA in stimulated human peripheral blood mononuclear cells. As to conditions: Homo sapiens, PBMC. It counts as cell-based. The protocol: (§1) CD2, CD3, and CD28 antibody-coated beads from the T-cell activation/expansion kit (Miltenyi Biotec) were added to the PBMC at a bead-to-cell ratio of 1:2.
(§2) The mixture of PBMCs and beads were seeded into the wells of the round-bottom 96-well plate at a concentration of 2×10^5 cells/well in a total volume of 200 μL. The cells were cultured for 72 hours at 37° C. and 5% CO2 and then supernatants were collected and IL-17A and IL-22 levels were measured by ELISA. […] The final compound concentration ranged from 30,000 nM to 0.005 nM and the final DMSO concentration per well was 0.3%. PBMCs were seeded at approximately 2×10^5 cells/well in the wells of the 96-well tissue culture plate in a total volume of 190 μL. The plate was incubated for 1 hour at 37° C. and 5% CO2. […] The cells were then cultured for 24 hours at 37° C. and 5% CO2. The supernatant was collected and CXCL10 levels were measured by ELISA.

For the next data set, the system named is CXCL10. In words: CXCL10 levels by ELISA in IFN-γ stimulated human peripheral blood mononuclear cells. It is filed as cell-based. As to conditions: human PBMC. On the procedure: The impact of Examples 23, 80, and 101 on IL-17A, IL-22, and CXCL10 levels was analyzed in cryopreserved human peripheral blood mononuclear cells (PBMC) by ELISA. […] For IL-17A and IL-22 assays, Examples 23, 80, and 101 were serially diluted from 10 mM in DMSO and further diluted in assay media to 100× the required final concentration, of which, 2 μL was added per well to a round-bottom 96-well tissue culture plate where the final DMSO concentration per well was 0.1%. CD2, CD3, and CD28 antibody-coated beads from the T-cell activation/expansion kit (Miltenyi Biotec) were added to the PBMC at a bead-to-cell ratio of 1:2.
The mixture of PBMCs and beads were seeded into the wells of the round-bottom 96-well plate at a concentration of 2×10^5 cells/well in a total volume of 200 μL. The cells were cultured for 72 hours at 37° C. and 5% CO2 and then supernatants were collected and IL-17A and IL-22 levels were measured by ELISA. For the CXCL10 assay, Examples 23, 80, and 101 were serially diluted from 10 mM in DMSO and further diluted in assay media to 100× the required final concentration, of which 2 μL was added per well to a 96-well tissue culture plate. The final compound concentration ranged from 30,000 nM to 0.005 nM and the final DMSO concentration per well was 0.3%. PBMCs were seeded at approximately 2×10^5 cells/well in the wells of the 96-well tissue culture plate in a total volume of 190 μL. The plate was incubated for 1 hour at 37° C. and 5% CO2. The cells were then stimulated with IFN-γ (15 ng/mL final concentration) in a volume of 10 μL. The cells were then cultured for 24 hours at 37° C. and 5% CO2. The supernatant was collected and CXCL10 levels were measured by ELISA.
(In an ELISA, binding on a coated surface is turned into a signal by an enzyme label.)

In data set [1] the test system is rat anti-collagen IgG1 antibodies. In words: Rat anti-collagen IgG1 antibodies in serum of CIA rats at day 21. As to conditions: for Average rat anti-collagen IgG1 levels, Mean: day 21, group mean; for Final Rat Anti-Collagen IgG1 Antibody Con. / Rat Anti-Collagen IgG1 Antibody Con.: day 21, per animal; for Rat Anti-Collagen IgG1 Antibody Con.: before multiplying by Fold 2000. It is filed as in vivo, Lewis rat.
Experimental: Blood was additionally collected from groups 1-7 via cardiac puncture following euthanasia on Day 21. […] Serum was divided into two separate tubes and stored at −75±15° C. One tube was used to analyze IgG1, and the other tube was reserved for additional analyses.

In a further data set the test system is IL-17A. The data set is described as follows: IL-17A levels by ELISA in stimulated human peripheral blood mononuclear cells. It counts as cell-based. As to conditions: Homo sapiens, PBMC. On the procedure: as §1, §2
Data set [2] can be described thus: Pharmacokinetics and plasma concentration of Example 101 in Lewis rats after oral administration (CIA study). It is filed as in vivo, Lewis rat. As to conditions: Day 21, Group 4 (CIA + GSK620).

Take `CNC(=O)c1cc(C(=O)NC2CC2)cn(Cc2ccccc2)c1=O` [GSK620]: the IC50 (commonly the concentration that inhibits the measured activity by half) was 231 nM with IL-22 (Test Subject 1, read-out: IL-22 IC50); 21.6 nM with IL-22 (Test Subject 2, read-out: IL-22 IC50); 106 nM in the data set with IL-22 (Test Subject 3, read-out: IL-22 IC50); 120 nM in the data set on IL-22 (mean of test subjects, read-out: IL-22 IC50 Mean); over 30000 nM in the data set on CXCL10 (Test Subject 1, read-out: CXCL10 IC50); over 30000 nM in the data set on CXCL10 (Test Subject 2, read-out: CXCL10 IC50). The IC50 is over 30000 nM with CXCL10 (Test Subject 3, read-out: CXCL10 IC50); over 30000 nM with CXCL10 (mean of test subjects, read-out: CXCL10 IC50 Mean); 80.5 nM in the data set with IL-17A (Test Subject 1, read-out: IL-17A IC50); 59.7 nM in the data set with IL-17A (Test Subject 2, read-out: IL-17A IC50); 139 nM in the data set on IL-17A (Test Subject 3, read-out: IL-17A IC50); 93.2 nM in the data set with IL-17A (mean of test subjects, read-out: IL-17A IC50 Mean). The “Average rat anti-collagen IgG1 levels, Mean” value in data set [1] (Group 4 (CIA + GSK620)) is 7532.82*. In addition, the “Final Rat Anti-Collagen IgG1 Antibody Con.” value in data set [1] (Group 4 (CIA + GSK620)) is 9149.39 units/ml and 10971.56 units/ml and 258.62 units/ml and 1400.18 units/ml and 15017.25 units/ml and 2682.44 units/ml and 9308.00 units/ml and 11475.12 units/ml. Further, in data set [1] (Group 4 (CIA + GSK620)), the “Rat Anti-Collagen IgG1 Antibody Con.” value is 4.57 units/ml and 5.49 units/ml and 0.13 units/ml and 0.70 units/ml and 7.51 units/ml and 1.34 units/ml and 4.65 units/ml and 5.74 units/ml. The “Plasma concentration” value in data set [2] (per animal) was 1590 ng/mL and 4170 ng/mL and 3070 ng/mL and 2740 ng/mL and 1760 ng/mL and 3230 ng/mL and 3450 ng/mL and 2540 ng/mL. In addition, the concentration at 21 day in data set [2] (Lewis, rat, plasma, oral, read-out: Mean Plasma Concentration) is 2820 ng/mL.
For `C[C@@H]1C[C@H]2[C@@H]3CCC4=CC(=O)C=C[C@]4(C)[C@@]3(F)[C@@H](O)C[C@]2(C)[C@@]1(O)C(=O)CO` [dexamethasone], the “Average rat anti-collagen IgG1 levels, Mean” value in data set [1] (Group 3 (CIA + Dex)) is reported as 7833.69*. In data set [1] (Group 3 (CIA + Dexamethasone)), the “Final Rat Anti-Collagen IgG1 Antibody Con.” value was 22019.88 units/ml and 5250.27 units/ml and 1296.14 units/ml and 2541.14 units/ml and 4553.59 units/ml and 7925.50 units/ml and 7346.16 units/ml; the “Rat Anti-Collagen IgG1 Antibody Con.” value was 11.01 units/ml and 2.63 units/ml and 0.65 units/ml and 1.27 units/ml and 5.87 units/ml and 2.28 units/ml and 3.96 units/ml and 3.67 units/ml.
